According to the NIST ThermoML archive (doi:10.1016/j.jct.2016.12.012):
Where “and” joins values, the source holds several entries; their conditions need not be identical. Equal values may be shown once. Numbers after ± are expanded uncertainties.

Legend:
[1] = for Normal melting temperature: DTA
[2] = Molar enthalpy of transition or fusion; settings: DSC

CC(=O)Oc1ccccc1C(C)=O [2'-acetoxyacetophenone]
[1]
Settings	vapor or sublimation pressure
298.01 K, Crystal, Calculated from knudsen effusion weight loss	6.1e-05 ± 2e-05 kPa and 6e-05 ± 2e-05 kPa
299.4 K, Crystal, Calculated from knudsen effusion weight loss	7.4e-05 ± 2e-05 kPa
301.22 K, Crystal, Calculated from knudsen effusion weight loss	9.7e-05 ± 2e-05 kPa and 9.6e-05 ± 2e-05 kPa
303.17 K, Crystal, Calculated from knudsen effusion weight loss	0.000121 ± 2e-05 kPa and 0.000122 ± 2e-05 kPa and 0.000124 ± 2e-05 kPa
305.39 K, Crystal, Calculated from knudsen effusion weight loss	0.000164 ± 2.1e-05 kPa and 0.000166 ± 2.1e-05 kPa
307.2 K, Crystal, Calculated from knudsen effusion weight loss	0.000214 ± 2.1e-05 kPa and 0.000217 ± 2.1e-05 kPa and 0.000215 ± 2.1e-05 kPa
309.14 K, Crystal, Calculated from knudsen effusion weight loss	0.000275 ± 2.2e-05 kPa and 0.000277 ± 2.2e-05 kPa
311.34 K, Crystal, Calculated from knudsen effusion weight loss	0.000362 ± 2.4e-05 kPa and 0.000361 ± 2.4e-05 kPa and 0.000365 ± 2.4e-05 kPa
313 K, Crystal, Closed cell (Static) method	0.00046 ± 0.00011 kPa
313.21 K, Crystal, Calculated from knudsen effusion weight loss	0.000467 ± 2.6e-05 kPa and 0.000465 ± 2.6e-05 kPa and 0.000469 ± 2.6e-05 kPa
315.01 K, Crystal, Closed cell (Static) method	0.0006 ± 0.00011 kPa
315.13 K, Crystal, Calculated from knudsen effusion weight loss	0.00059 ± 3e-05 kPa and 0.000588 ± 2.9e-05 kPa and 0.000593 ± 2.9e-05 kPa
316.99 K, Crystal, Closed cell (Static) method	0.00076 ± 0.00011 kPa
317.31 K, Crystal, Calculated from knudsen effusion weight loss	0.000786 ± 3.4e-05 kPa and 0.000778 ± 3.4e-05 kPa
318.98 K, Crystal, Closed cell (Static) method	0.00097 ± 0.00012 kPa
319.28 K, Crystal, Calculated from knudsen effusion weight loss	0.00102 ± 8e-05 kPa and 0.001014 ± 7.9e-05 kPa and 0.001001 ± 7.8e-05 kPa
320.96 K, Crystal, Closed cell (Static) method	0.00123 ± 0.00012 kPa
321.27 K, Crystal, Calculated from knudsen effusion weight loss	0.001305 ± 0.00011 kPa and 0.001292 ± 0.00011 kPa and 0.001286 ± 0.00011 kPa
322.97 K, Crystal, Closed cell (Static) method	0.00156 ± 0.00013 kPa
324.96 K, Crystal, Closed cell (Static) method	0.00199 ± 0.00014 kPa
326.91 K, Crystal, Closed cell (Static) method	0.0025 ± 0.00015 kPa
328.91 K, Crystal, Closed cell (Static) method	0.00314 ± 0.00017 kPa
330.92 K, Crystal, Closed cell (Static) method	0.00397 ± 0.00019 kPa
332.88 K, Crystal, Closed cell (Static) method	0.00495 ± 0.00023 kPa
334.86 K, Crystal, Closed cell (Static) method	0.00619 ± 0.00027 kPa
336.81 K, Crystal, Closed cell (Static) method	0.00762 ± 0.00032 kPa
338.84 K, Crystal, Closed cell (Static) method	0.00958 ± 0.00039 kPa
340.8 K, Crystal, Closed cell (Static) method	0.01175 ± 0.00047 kPa
342.74 K, Crystal, Closed cell (Static) method	0.01458 ± 0.00054 kPa
344.72 K, Crystal, Closed cell (Static) method	0.01786 ± 0.00059 kPa
344.73 K, Metastable liquid, Closed cell (Static) method	0.03005 ± 0.00078 kPa
346.7 K, Crystal, Closed cell (Static) method	0.02195 ± 0.00065 kPa
346.73 K, Metastable liquid, Closed cell (Static) method	0.03465 ± 0.00085 kPa
348.65 K, Metastable liquid, Closed cell (Static) method	0.03975 ± 0.00093 kPa
348.68 K, Crystal, Closed cell (Static) method	0.02665 ± 0.00073 kPa
350.65 K, Metastable liquid, Closed cell (Static) method	0.04556 ± 0.001 kPa
350.69 K, Crystal, Closed cell (Static) method	0.0325 ± 0.00082 kPa
352.61 K, Crystal, Closed cell (Static) method	0.0395 ± 0.00093 kPa
352.64 K, Metastable liquid, Closed cell (Static) method	0.05208 ± 0.0011 kPa
354.59 K, Metastable liquid, Closed cell (Static) method	0.05928 ± 0.0012 kPa
354.61 K, Crystal, Closed cell (Static) method	0.04802 ± 0.0011 kPa
356.54 K, Crystal, Closed cell (Static) method	0.05812 ± 0.0012 kPa
356.54 K, Metastable liquid, Closed cell (Static) method	0.06775 ± 0.0014 kPa
358.51 K, Metastable liquid, Closed cell (Static) method	0.07683 ± 0.0015 kPa
360.53 K, Metastable liquid, Closed cell (Static) method	0.08729 ± 0.0017 kPa
362.46 K, Metastable liquid, Closed cell (Static) method	0.0988 ± 0.0018 kPa
364.45 K, Closed cell (Static) method, Liquid	0.1124 ± 0.0021 kPa
366.49 K, Closed cell (Static) method, Liquid	0.127 ± 0.0023 kPa
368.43 K, Closed cell (Static) method, Liquid	0.1443 ± 0.0021 kPa
370.48 K, Closed cell (Static) method, Liquid	0.162 ± 0.0023 kPa
372.37 K, Closed cell (Static) method, Liquid	0.1819 ± 0.0024 kPa
374.39 K, Closed cell (Static) method, Liquid	0.205 ± 0.0026 kPa
376.34 K, Closed cell (Static) method, Liquid	0.2324 ± 0.0028 kPa
378.28 K, Closed cell (Static) method, Liquid	0.2588 ± 0.0031 kPa
380.23 K, Closed cell (Static) method, Liquid	0.2847 ± 0.0033 kPa
382.24 K, Closed cell (Static) method, Liquid	0.3195 ± 0.0036 kPa
384.15 K, Closed cell (Static) method, Liquid	0.3609 ± 0.0039 kPa
386.19 K, Closed cell (Static) method, Liquid	0.3984 ± 0.0043 kPa
388.15 K, Closed cell (Static) method, Liquid	0.4446 ± 0.0047 kPa
390.12 K, Closed cell (Static) method, Liquid	0.4936 ± 0.0051 kPa
392.04 K, Closed cell (Static) method, Liquid	0.5463 ± 0.0055 kPa
394.07 K, Closed cell (Static) method, Liquid	0.6059 ± 0.0061 kPa
395.98 K, Closed cell (Static) method, Liquid	0.6687 ± 0.0066 kPa
398 K, Closed cell (Static) method, Liquid	0.7392 ± 0.0072 kPa

Crystal
Settings	Molar enthalpy of transition or fusion [kcal/mol]	Normal melting temperature [°C]
[1]	–	88.7 ± 0.6
[2]	7.72 ± 0.191	–

CC(=O)Oc1cccc(C(C)=O)c1 [3-acetoxyacetophenone]
[1], Crystal 2, Calculated from knudsen effusion weight loss
Settings	vapor or sublimation pressure
297.65 K	0.000123 ± 2e-05 kPa and 0.000124 ± 2e-05 kPa
299.16 K	0.000153 ± 2.1e-05 kPa and 0.000152 ± 2.1e-05 kPa
300.09 K	0.000169 ± 2.1e-05 kPa and 0.000167 ± 2.1e-05 kPa and 0.000168 ± 2.1e-05 kPa
301.23 K	0.000194 ± 2.1e-05 kPa and 0.000196 ± 2.1e-05 kPa
302.21 K	0.00023 ± 2.2e-05 kPa
303.25 K	0.000262 ± 2.2e-05 kPa and 0.000259 ± 2.2e-05 kPa
304.24 K	0.000293 ± 2.3e-05 kPa and 0.00029 ± 2.2e-05 kPa
305.23 K	0.000337 ± 2.3e-05 kPa and 0.00034 ± 2.3e-05 kPa and 0.000334 ± 2.3e-05 kPa
306.24 K	0.000387 ± 2.4e-05 kPa and 0.000383 ± 2.4e-05 kPa and 0.000389 ± 2.4e-05 kPa
307.26 K	0.000436 ± 2.5e-05 kPa and 0.000441 ± 2.5e-05 kPa and 0.000434 ± 2.5e-05 kPa

[1]
Settings	vapor or sublimation pressure [kPa]
305.09 K, Metastable liquid, Closed cell (Static) method	0.00046 ± 0.00011
307.07 K, Metastable liquid, Closed cell (Static) method	0.00055 ± 0.00011
309.03 K, Metastable liquid, Closed cell (Static) method	0.00067 ± 0.00011
311.04 K, Metastable liquid, Closed cell (Static) method	0.00082 ± 0.00011
312.98 K, Metastable liquid, Closed cell (Static) method	0.001 ± 0.00012
315.01 K, Closed cell (Static) method, Liquid	0.00122 ± 0.00012
317.02 K, Closed cell (Static) method, Liquid	0.00147 ± 0.00012
319.06 K, Closed cell (Static) method, Liquid	0.00173 ± 0.00013
320.99 K, Closed cell (Static) method, Liquid	0.00206 ± 0.00014
323.04 K, Closed cell (Static) method, Liquid	0.00247 ± 0.00015
324.96 K, Closed cell (Static) method, Liquid	0.00291 ± 0.00016
326.99 K, Closed cell (Static) method, Liquid	0.00346 ± 0.00018
328.93 K, Closed cell (Static) method, Liquid	0.0041 ± 0.0002
330.94 K, Closed cell (Static) method, Liquid	0.00489 ± 0.00022
332.92 K, Closed cell (Static) method, Liquid	0.00565 ± 0.00025
334.91 K, Closed cell (Static) method, Liquid	0.00677 ± 0.00029
336.87 K, Closed cell (Static) method, Liquid	0.00798 ± 0.00033
338.84 K, Closed cell (Static) method, Liquid	0.00935 ± 0.00038
340.83 K, Closed cell (Static) method, Liquid	0.01079 ± 0.00044
342.8 K, Closed cell (Static) method, Liquid	0.01271 ± 0.00051
344.79 K, Closed cell (Static) method, Liquid	0.01475 ± 0.00054
346.92 K, Closed cell (Static) method, Liquid	0.01728 ± 0.00058
348.74 K, Closed cell (Static) method, Liquid	0.01981 ± 0.00062
350.69 K, Closed cell (Static) method, Liquid	0.02301 ± 0.00067
352.67 K, Closed cell (Static) method, Liquid	0.02636 ± 0.00072
354.64 K, Closed cell (Static) method, Liquid	0.03047 ± 0.00078
356.61 K, Closed cell (Static) method, Liquid	0.0348 ± 0.00085
358.61 K, Closed cell (Static) method, Liquid	0.03975 ± 0.00093
360.51 K, Closed cell (Static) method, Liquid	0.04544 ± 0.001
362.54 K, Closed cell (Static) method, Liquid	0.05195 ± 0.0011
364.52 K, Closed cell (Static) method, Liquid	0.05948 ± 0.0012
366.49 K, Closed cell (Static) method, Liquid	0.06748 ± 0.0014
368.46 K, Closed cell (Static) method, Liquid	0.07663 ± 0.0015

Settings	Molar enthalpy of transition or fusion, Crystal 1 [kcal/mol]	Molar enthalpy of transition or fusion, Crystal 2 [kcal/mol]	Normal melting temperature, Crystal 1 [°C]	Triple point temperature, Crystal 2, DSC [K]
[1]	–	–	43.1 ± 0.5	308.1 ± 0.8
[2]	5.54 ± 0.167	0.239 ± 0.0956	–	–
